Biological target: MAPKAPK2 (Homo sapiens, UniProt P49137)
Test: MK2 Enzymatic Assay
Assay type: biochemical
Settings: 0.5 nM MAPKAPK2, 3 μM ATP, 2 μM Ser/Thr4 peptide, 23° C., values given as concentration bins
Method in brief: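 MAPKAPK2 (2× stock 1 nM) and peptide substrate (2× 4 μM) were preincubated 20 min, then started with ATP (2× stock 6 μM) for 120 min. After 120 min development, coumarin/fluorescein emission ratio gave percent phosphorylation against 0% and 100% phosphopeptide controls.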

Sequence of MAPKAPK2 (P49137 whole entry, species assumed): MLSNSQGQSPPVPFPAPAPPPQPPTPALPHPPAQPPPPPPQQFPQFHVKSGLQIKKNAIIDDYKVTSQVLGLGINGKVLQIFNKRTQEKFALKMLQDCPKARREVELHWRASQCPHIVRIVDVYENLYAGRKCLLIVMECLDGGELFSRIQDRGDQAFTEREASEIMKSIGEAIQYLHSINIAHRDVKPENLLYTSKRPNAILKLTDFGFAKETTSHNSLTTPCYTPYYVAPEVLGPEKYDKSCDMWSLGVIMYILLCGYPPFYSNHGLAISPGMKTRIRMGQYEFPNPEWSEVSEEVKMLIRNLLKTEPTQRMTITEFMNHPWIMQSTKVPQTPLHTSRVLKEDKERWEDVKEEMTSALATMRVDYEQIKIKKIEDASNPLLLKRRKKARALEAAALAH

Row | IC50 [nM] | SMILES
1 | < 50 | CN(C)C[C@@H]1CN(c2ccc3c(n2)Cn2cc(-c4ccc(F)cc4)cc2-c2nccn2-3)C[C@H]1O [Compound 436, (3S,4R)-4-((dimethylamino)methyl)-1-(12-(4-fluorophenyl)-9H-imidazo[2,1-c]pyrido[3,2-e]pyrrolo[1,2-a][1,4]diazepin-7-yl)pyrrolidin-3-ol]
2 | < 50 | C[C@@H](CO)NC[C@H]1CCN(c2ccc3c(n2)Cn2cc(-c4ccc(F)cc4)cc2-c2nccn2-3)C1 [Compound 437, (S)-2-((((R)-1-(12-(4-fluorophenyl)-9H-imidazo[2,1-c]pyrido[3,2-e]pyrrolo[1,2-a][1,4]diazepin-7-yl)pyrrolidin-3-yl)methyl)amino)propan-1-ol]
3 | < 50 | Fc1ccc(-c2cc3n(c2)Cc2nc(N4CCC5(CNC5)C4)ccc2-n2ccnc2-3)cc1 [Compound 440, 12-(4-fluorophenyl)-7-(2,6-diazaspiro[3.4]octan-6-yl)-9H-imidazo[2,1-c]pyrido[3,2-e] pyrrolo[1,2-a][1,4]diazepine]
4 | < 50 | CN1CC2(CCN(c3ccc4c(n3)Cn3cc(-c5ccc(F)cc5)cc3-c3nccn3-4)C2)C1 [Compound 441, 12-(4-fluorophenyl)-7-(2-methyl-2,6-diazaspiro[3.4]octan-6-yl)-9H-imidazo[2,1-c]pyrido[3,2-e]pyrrolo[1,2-a][1,4]diazepine]
5 | 100 to 200 | C[C@H](CO)NC[C@H]1CCN(c2cc3c(cn2)-n2ccnc2-c2cc(-c4ccc(F)cc4)cn2C3)C1 [Compound 442, (R)-2-((((R)-1-(12-(4-fluorophenyl)-9H-imidazo[2,1-c]pyrido[3,4-e]pyrrolo[1,2-a][1,4]diazepin-7-yl)pyrrolidin-3-yl)methyl)amino)propan-1-ol]
6 | 100 to 200 | CN(C)C[C@@H]1CCN(c2cc3c(cn2)-n2cnnc2-c2cc(-c4ccc(F)cc4)cn2C3)C1 [Compound 443, (S)-1-(1-(12-(4-fluorophenyl)-9H-pyrido[3,4-e]pyrrolo[1,2-a][1,2,4]triazolo[3,4-c][1,4]diazepin-7-yl)pyrrolidin-3-yl)-N,N-dimethylmethanamine]
7 | 100 to 200 | CN(C)[C@H]1CCN(c2ccc3c(c2)Cn2cc(-c4ccc(F)cc4F)cc2-c2nncn2-3)C1 [Compound 449, (S)-1-(12-(2,4-difluorophenyl)-9H-benzo[e]pyrrolo[1,2-a][1,2,4]triazolo[3,4-c][1,4]diazepin-7-yl)-N,N-dimethylpyrrolidin-3-amine]
8 | 100 to 200 | CN[C@H]1CCN(c2ccc3c(c2)Cn2cc(-c4ccc(F)cc4F)cc2-c2ncnn2-3)C1 [Compound 451, (S)-1-(12-(2,4-difluorophenyl)-9H-benzo[e]pyrrolo[1,2-a][1,2,4]triazolo[5,1-c][1,4]diazepin-7-yl)-N-methylpyrrolidin-3-amine]
9 | 100 to 200 | OC1CCN(C[C@H]2CCN(c3ccc4c(c3)Cn3cc(-c5ccccc5)cc3-c3nncn3-4)C2)CC1 [Compound 459, (R)-1-((1-(12-phenyl-9H-benzo[e]pyrrolo[1,2-a][1,2,4]triazolo[3,4-c][1,4]diazepin-7-yl)pyrrolidin-3-yl)methyl)piperidin-4-ol]
10 | < 50 | c1ccc(-c2cc3n(c2)Cc2cc(N4CCC5(CNC5)C4)ccc2-n2ccnc2-3)cc1 [Compound 462, 12-phenyl-7-(2,6-diazaspiro[3.4]octan-6-yl)-9H-benzo[e]imidazo[2,1-c]pyrrolo[1,2-a][1,4]diazepine]
11 | < 50 | CCNC[C@@H]1CCN(c2ccc3c(c2)Cn2cc(-c4ccc(F)cc4)cc2-c2nccn2-3)C1 [Compound 464, (S)—N-((1-(12-(4-fluorophenyl)-9H-benzo[e]imidazo[2,1-c]pyrrolo[1,2-a][1,4]diazepin-7-yl)pyrrolidin-3-yl)methyl)ethanamine]
12 | 200 to 1000 | Fc1ccc(-c2cc3n(c2)Cc2cc(N4CC[C@@H](CNCC(F)F)C4)ccc2-n2ccnc2-3)cc1 [Compound 465, (S)-2,2-difluoro-N-((1-(12-(4-fluorophenyl)-9H-benzo[e]imidazo[2,1-c]pyrrolo[1,2-a][1,4]diazepin-7-yl)pyrrolidin-3-yl)methyl)ethanamine]
13 | < 50 | CNC[C@H]1CN(c2ccc3c(c2)Cn2cc(-c4ccc(F)cc4)cc2-c2nccn2-3)C[C@H]1F [Compound 466, 1-((3S,4S)-4-fluoro-1-(12-(4-fluorophenyl)-9H-benzo[e]imidazo[2,1-c]pyrrolo[1,2-a][1,4]diazepin-7-yl)pyrrolidin-3-yl)-N-methylmethanamine]
14 | < 50 | CN(C)C[C@H]1CN(c2ccc3c(c2)Cn2cc(-c4ccc(F)cc4)cc2-c2nccn2-3)C[C@H]1F [Compound 467, 1-((3S,4S)-4-fluoro-1-(12-(4-fluorophenyl)-9H-benzo[e]imidazo[2,1-c]pyrrolo[1,2-a][1,4]diazepin-7-yl)pyrrolidin-3-yl)-N,N-dimethylmethanamine]
15 | < 50 | O[C@H]1CN(c2ccc3c(c2)Cn2cc(-c4ccc(F)cc4)cc2-c2nccn2-3)C[C@@H]1CN1CCCC1 [Compound 470, (3R,4S)-1-(12-(4-fluorophenyl)-9H-benzo[e]imidazo[2,1-c]pyrrolo[1,2-a][1,4]diazepin-7-yl)-4-(pyrrolidin-1-ylmethyl)pyrrolidin-3-ol]
16 | < 50 | O[C@@H]1CN(c2ccc3c(c2)Cn2cc(-c4ccc(F)cc4)cc2-c2nccn2-3)C[C@H]1CN1CCCC1 [Compound 471, (3S,4R)-1-(12-(4-fluorophenyl)-9H-benzo[e]imidazo[2,1-c]pyrrolo[1,2-a][1,4]diazepin-7-yl)-4-(pyrrolidin-1-ylmethyl)pyrrolidin-3-ol]

Second part, the compound before the results:

Row | SMILES | IC50 [nM]
17 | CN(C)C[C@H]1CN(c2ccc3c(c2)Cn2cc(-c4ccc(F)cc4)cc2-c2ncnn2-3)C[C@@H]1O [Compound 421, (3R,4S)-4-((dimethylamino)methyl)-1-(12-(4-fluorophenyl)-9H-benzo[e]pyrrolo[1,2-a][1,2,4]triazolo[5,1-c][1,4]diazepin-7-yl)pyrrolidin-3-ol] | < 50
18 | CN(C)C[C@@H]1CN(c2ccc3c(c2)Cn2cc(-c4ccc(F)cc4)cc2-c2ncnn2-3)C[C@H]1O [Compound 422, (3S,4R)-4-((dimethylamino)methyl)-1-(12-(4-fluorophenyl)-9H-benzo[e]pyrrolo[1,2-a][1,2,4]triazolo[5,1-c][1,4]diazepin-7-yl)pyrrolidin-3-ol] | < 50
19 | CC(C)(CO)NC[C@@H]1CCN(c2ccc3c(c2)Cn2cc(-c4ccc(F)cc4)cc2-c2ncnn2-3)C1 [Compound 425, (S)-2-(((1-(12-(4-fluorophenyl)-9H-benzo[e]pyrrolo[1,2-a][1,2,4]triazolo[5,1-c][1,4]diazepin-7-yl)pyrrolidin-3-yl)methyl)amino)-2-methylpropan-1-ol] | 50 to 100
20 | CN(C)[C@@H]1CCN(c2ccc3c(c2)Cn2cc(-c4ccc(F)cc4)cc2-c2ncnn2-3)C1 [Compound 426, (R)-1-(12-(4-fluorophenyl)-9H-benzo[e]pyrrolo[1,2-a][1,2,4]triazolo[5,1-c][1,4]diazepin-7-yl)-N,N-dimethylpyrrolidin-3-amine] | 50 to 100
21 | CN(C)[C@H]1CCN(c2ccc3c(c2)Cn2cc(-c4ccc(F)cc4)cc2-c2ncnn2-3)C1 [Compound 427, (S)-1-(12-(4-fluorophenyl)-9H-benzo[e]pyrrolo[1,2-a][1,2,4]triazolo[5,1-c][1,4]diazepin-7-yl)-N,N-dimethylpyrrolidin-3-amine] | 50 to 100
22 | CN(C)C1CCN(c2ccc3c(c2)Cn2cc(-c4ccc(F)cc4)cc2-c2ncnn2-3)CC1 [Compound 428, 1-(12-(4-fluorophenyl)-9H-benzo[e]pyrrolo[1,2-a][1,2,4]triazolo[5,1-c][1,4]diazepin-7-yl)-N,N-dimethylpiperidin-4-amine] | 50 to 100
23 | CN(C)C[C@H]1CN(c2ccc3c(n2)Cn2cc(-c4ccc(F)cc4)cc2-c2ncnn2-3)C[C@H]1O [Compound 429, (3S,4S)-4-((dimethylamino)methyl)-1-(12-(4-fluorophenyl)-9H-imidazo[2,1-c]pyrido[3,2-e]pyrrolo[1,2-a][1,4]diazepin-7-yl)pyrrolidin-3-ol] | < 50
24 | CN(C)C[C@@H]1CN(c2ccc3c(n2)Cn2cc(-c4ccc(F)cc4)cc2-c2nccn2-3)C[C@@H]1O [Compound 430, (3R,4R)-4-((dimethylamino)methyl)-1-(12-(4-fluorophenyl)-9H-imidazo[2,1-c]pyrido[3,2-e]pyrrolo[1,2-a][1,4]diazepin-7-yl)pyrrolidin-3-ol] | < 50
25 | CN(C)[C@@H]1CN(c2ccc3c(n2)Cn2cc(-c4ccc(F)cc4)cc2-c2nccn2-3)C[C@H]1O [Compound 431, (3R,4R)-4-(dimethylamino)-1-(12-(4-fluorophenyl)-9H-imidazo[2,1-c]pyrido[3,2-e]pyrrolo[1,2-a][1,4]diazepin-7-yl)pyrrolidin-3-ol] | < 50
26 | CN(C)[C@H]1CN(c2ccc3c(n2)Cn2cc(-c4ccc(F)cc4)cc2-c2nccn2-3)C[C@H]1O [Compound 432, (3R,4S)-4-(dimethylamino)-1-(12-(4-fluorophenyl)-9H-imidazo[2,1-c]pyrido[3,2-e]pyrrolo[1,2-a][1,4]diazepin-7-yl)pyrrolidin-3-ol] | 100 to 200
27 | CN(C)[C@@H]1CN(c2ccc3c(n2)Cn2cc(-c4ccc(F)cc4)cc2-c2nccn2-3)C[C@@H]1O [Compound 433, (3S,4R)-4-(dimethylamino)-1-(12-(4-fluorophenyl)-9H-imidazo[2,1-c]pyrido[3,2-e]pyrrolo[1,2-a][1,4]diazepin-7-yl)pyrrolidin-3-ol] | 50 to 100
28 | C[C@H](CO)NC[C@H]1CCN(c2ccc3c(n2)Cn2cc(-c4ccc(F)cc4)cc2-c2nccn2-3)C1 [Compound 434, (R)-2-((((R)-1-(12-(4-fluorophenyl)-9H-imidazo[2,1-c]pyrido[3,2-e]pyrrolo[1,2-a][1,4]diazepin-7-yl)pyrrolidin-3-yl)methyl)amino)propan-1-ol] | < 50
29 | CN(C)C[C@H]1CN(c2ccc3c(n2)Cn2cc(-c4ccc(F)cc4)cc2-c2nccn2-3)C[C@@H]1O [Compound 435, (3R,4S)-4-((dimethylamino)methyl)-1-(12-(4-fluorophenyl)-9H-imidazo[2,1-c]pyrido[3,2-e]pyrrolo[1,2-a][1,4]diazepin-7-yl)pyrrolidin-3-ol] | < 50

Source: patent US10562909B2, “Fused quadracyclic compounds, compositions and uses thereof” (Tabomedex Biosciences, LLC, priority 2016, dated 2020)
